Here are results for one compound from patent US20060246115A1, “Nutritional products for ameliorating symptoms of rheumatoid arthritis” (priority 2005, published 2006).

For experiment [1], the system named is type II collagen-immunized mice (collagen-induced arthritis). Briefly: Experiment 1: collagen-induced arthritis (CIA) in mice, clinical assessment. The class given is in vivo. The conditions noted are these: prednisolone 5 mg/kg i.p. daily. How it is done:
Tests are conducted under a model of rheumatoid arthritis in mice (collagen-induced arthritis or CIA) that shares some similarities with the human disease. The tests evaluate the effect of plant extracts and Oxepa®, on the severity of CIA and concentration of inflammatory mediators.
Seven week-old DBA/1J (H-2^q) male mice (n=105) are purchased from Harlan (Barcelona, Spain) and housed in plastic cages (5 animals each) with free access to food and water.
The procedure followed for the animal immunization is carried out by injecting 100 μl of bovine collagen II emulsion (type II collagen in complete Freund's adjuvant) intradermically in the base of the tail. Collagen is supplied by Chondrex (MDbiosciences, Switzerland) and the emulsion is prepared as follows: collagen is dissolved in 0.05M acetic acid (2 mg/ml) overnight at 4° C. with constant, but gentle stirring and emulsified with Freund's adjuvant (1:1). The Freund's adjuvant is added drop by drop while mixing in a high-speed homogenisator (ultraturrax) at 27,000 rpm. […]
Mice are assessed daily for clinical symptoms of inflammation, and their weights are measured. […]
For the statistical analysis, outliers are removed if they differed from the mean more than three standard deviations. Homogeneity of variances is analysed by Levene's test. […] The classification of arthritic index into categories is analysed by Chi-squared.

Experiment [2] deals with antibodies against type II collagen (IgG2a). Briefly: Experiment 1: anti-CII IgG2a ELISA in serum and joint homogenates. The experiment is classed as in vivo, mice. Here is the method:
Blood samples are taken from the retroorbital sinus under light anesthesia and the animals are immediately sacrificed by cervical dislocation. Fore and hind limbs are dissected and frozen at −80° C. Blood samples are allowed to cloth for 1 hour at room temperature and the serum is separated from blood cells by centrifugation at 6,500 g for 10 min.
(§1) The following parameters are measured in joint homogenates: antibodies against type II collagen (IgG2a); proinflammatory cytokines: IL-1β and IL-6; counter-regulatory cytokines: IL-10; and Matrix metalloproteinases: MMP-9. Antibodies against type II collagen (IgG2a) are also measured in serum.
Specific anti-CII—IgG2a in joints and serum of mice is determined by ELISA. Briefly, 96-well microtiter plates are coated overnight with CII at 4° C., washed with 0.05% Tween-PBS, blocked with 1% bovine serum albumin-PBS for 2 h at room temperature and then washed again. Samples are diluted with PBS before assay: 1:16000 for serum and 1:50 for homogenized joints. Fifty (50) μL of standards (type II collagen Ab-2, clone 2B1.5, NeoMarkers) from 0 to 500 ng/ml and samples are added to each well in duplicate, and incubated 2 h at 37° C. […] Finally the absorbance is measured in a microplate reader at 405 nm.
A general note: ELISA stands for enzyme-linked immunosorbent assay.

The next experiment has as its system IL-1β. Briefly: Experiment 1: IL-1β ELISA in joint homogenates. The experiment is classed as in vivo, mice. Here is the method: as §1
Cytokines and MMP-9 in homogenized joints are measured by ELISA using commercial kits from BIOTRAK (Amersham Pharmacia Biotech) following the supplier instructions and using joint homogenates without any further dilution.

The test system of a further experiment is IL-6. Briefly: Experiment 1: IL-6 ELISA in joint homogenates. The class given is in vivo, mice. Here is the method:
(§2) The following parameters are measured in joint homogenates: antibodies against type II collagen (IgG2a); proinflammatory cytokines: IL-1β and IL-6; counter-regulatory cytokines: IL-10; and Matrix metalloproteinases: MMP-9. Antibodies against type II collagen (IgG2a) are also measured in serum. Cytokines and MMP-9 in homogenized joints are measured by ELISA using commercial kits from BIOTRAK (Amersham Pharmacia Biotech) following the supplier instructions and using joint homogenates without any further dilution.

The subject of the next experiment is MMP-9. Briefly: Experiment 1: MMP-9 ELISA in joint homogenates. The class given is in vivo, mice. Here is the method: as §2
Experiment [3] relates to type II collagen-immunized mice (collagen-induced arthritis). Briefly: Experiment 3: CIA in mice, arthritis index, onset and incidence. The experiment is classed as in vivo. The conditions noted are these: prednisolone i.p. daily.
In experiment [4] the test system is histological structure of cartilage and bone of arthritic joints. Briefly: Experiment 3: histological scoring of joints of CIA mice (H&E). The experiment is classed as in vivo. The text has this:
Experiment 1 is repeated and the test animals evaluated for various histological changes associated with each control or treatment group. The purpose of this experiment is to show the effect of Boswellia serrata and Phlebodium decumanum extracts and Oxepa® on the histological structure of cartilage and bone in the same experimental model as described above. After again completing the above-described model, the mice are sacrificed 10 days after the arthritis onset by cervical dislocation under light anesthesia. Fore and hind limbs are dissected and the skin removed. Each is then immersed in 4% buffered formaldehyde for 2-3 days. Afterwards, each is treated with decalcificant solution for 2 hours and treated again for 60-90 minutes more. The samples are dehydrated with alcohol solutions of increasing concentrations, embedded in paraffin, cut into 4 μm slices and stain with hematoxilin and eosin (H&E). The following joints are thereafter studied: elbow, radio-cubito-carpo (wrist), carpo-metacarpo and metacarpo-phalange in fore limbs, and knee, tibio-tarso (ankle), tarso-metatarso, metatarso-phalange in hind limbs. Typical alterations of arthritic joints are considered, such as synovial inflammation, pannus formation, cartilage damage and bone destruction, and are scored on a nominal scale from 0 to 3. The scale is defined for each parameter as follows: Synovial inflammation: 0=Absence: normal synovial-periarticular tissue; 1=mild: infiltration of inflammatory cells in the periarticular tissue; 2=moderated: cell infiltration and moderated edema; 3=severe: marked cell infiltration and edema. Pannus formation: None (0), mild (1), moderate (2) or severe (3) proliferation of synovial tissue at the synovium-cartilage junction. Cartilage damage: 0=Absence: normal cartilage; 1=mild: damage of Zone I (external) with slight loss of chondrocytes and/or collagen disruption; 2=moderated: damage of Zone II (internal) with moderate loss of chondrocytes and/or collagen disruption: 3=severe: severe damage of all Zones with multifocal losses of chondrocytes and/or collagen disruption. Subchondral bone destruction: 0=Absence: normal bone; 1=mild: some areas of cortical degradation, few osteoclasts; 2=moderated: clear bone degradation with moderate medular damage, more osteoclasts; 3=severe: intense cortical and medular bone destruction, numerous osteoclasts. The scores of all joints are summed to obtain a general score for each histological parameter and animal. The histopathologist is not aware of the study groups during the evaluation of the samples. Homogeneity of variances are tested by the Bartelett's test. If homogeneity of variances is met, data are analysed by one-way ANOVA. If variances are not homogeneous, non-parametric procedures are used. The analysis is done by the Graph Pad Prism Software version 4.

[5] abbreviates: individual mice, sum of scores (0-3) of all joints.

Structures are written as SMILES.

With `C[C@]12C=CC(=O)C=C1CC[C@@H]1[C@@H]2[C@@H](O)C[C@@]2(C)[C@H]1CC[C@]2(O)C(=O)CO` [prednisolone], the development of arthritis result in experiment [1] is listed as “do not develop arthritis”. The “IgG2a levels in joint homogenates versus control” value in experiment [2] (joint homogenates) is recorded as “significantly lower”. Besides, the “IgG2a levels in serum versus control” value in experiment [2] (serum) is on record as “significantly lower”. Besides, the “content of IL-1β in joint homogenates versus control” value in the experiment with IL-1β is recorded as “lower”. Besides, the “content of IL-6 in joint homogenates versus control” value in the experiment with IL-6 is on record as “lower”. Further, in the experiment on MMP-9, the “content of MMP-9 in joint homogenates versus control” value is given as “lower”. Besides, the development of arthritis entry in experiment [3] was “do not develop arthritis”. In experiment [4] (setting [5]), this compound gave a Bone score of 0, a Cartilage score of 0, an Inflammation score of 0 and a Pannus score of 0. The “joint appearance, histological slide” value in experiment [4] (knee, left hind limb, H&E, FIG. 9) is “normal joint”.
